Measurements published in patent publication US20210100834A1, “COMPOSITION CONTAINING A CHLORIDE SALT FOR USE IN PREGNANT ANIMALS” (Nutreco IP Assets B.V., priority 2017, published 2021).

Test system: pregnant sows
Experiment: Drinking water treatment of pregnant sows with calcium chloride and phosphoric acid, perinatal phenomena
Type: in vivo
Description: In another experiment, cations and anions were added to drinking water in such a balance, that the daily cation/anion balance of diet plus drinking water was reduced. For this, the drinking water contained 1.5 g calcium chloride per liter. […] In this experiment, next to the calcium chloride to reduce the daily cation/anion balance, a calcium binder (phosphoric acid, PhA)) was added in a concentration of 0.01 mol/liter.
It is believed that binding of dietary calcium in the gut and the inherent effect of reducing the amount of calcium available to the animal has as a consequence that the animal is triggered to mobilise calcium from its own mineral reserves in the bones. Therefore, when demand for calcium is increased as in parturition, the animal is more prepared to face this demand, and better equipped to maintain blood Ca levels.

O=P(O)(O)O [PhA, phosphoric acid]
Postnatal mortality (in vivo): 9.4% | effect of addition of calcium binder on perinatal mortality (in vivo): no negative effect | Piglets with colostrum intake <250 g/24 h (treated drinking water): 15.1% | Average colostrum intake per piglet (treated drinking water, calculated from weight gain): 408 g/24 h
